Active and inactive are the calls of the source. The rule behind the calls is not given here.

Test [1] has as its target Transthyretin (Homo sapiens) (UniProt P02766). Put plainly: Stabilization of wild type human transthyretin expressed in Escherichia coli BL21(DE3) assessed as fibril formation at 7.2 uM preincubated for 30 mins with transthyretin followed by measuring after 72 hrs maintaining pH of 4.4 by UV-Visible spectrophotometer relative to control.
Test [2] shares this target. The test is described as follows: Stabilization of wild type human transthyretin expressed in Escherichia coli BL21(DE3) assessed as decrease in TTR-amyloid beta fibril formation at 10 uM preincubated for 6 hrs with transthyretin followed by measuring after 96 hrs maintaining pH of 4.4 by thioflavin T binding assay relative to control.

With `O=C(O)CO/N=C/c1cccc(O)c1`, the Activity in test [1] worked out at 100%.

On to `O=C(O)CO/N=C/c1cccc(OCC(=O)O)c1`, for which the Activity in test [1] worked out at 100%. The inhibition – broadly, the change of the read-out against control, counted positive when it falls – in test [2] is “inactive”.

In the case of `O=C(O)CO/N=C/c1ccccc1OCC(=O)O`, the Activity in test [1] came to 100%. Also, in test [2], the inhibition entry was “inactive”.

As for `O=C(O[C@@H]1Cc2c(O)cc(O)cc2O[C@@H]1c1cc(O)c(O)c(O)c1)c1cc(O)c(O)c(O)c1`, the inhibition in test [2] amounted to 53%.

With `O=C(O)CO/N=C/c1ccc(O)cc1`, in test [1], the Activity came to 59%.

As to `O=C(O)CCO/N=C/c1cc(O)cc(O)c1`, in test [1], the Activity is 39%.

Take `O=C(O)c1cc(-c2ccc(F)cc2F)ccc1O`: the Activity in test [1] turned out to be 9%.

With `O=C(O)CCO/N=C/c1ccccc1O`, in test [1], the Activity was found to be 38%. Besides, in test [2], the inhibition result is “Active”.

For the compound `O=C(O)CCO/N=C/c1ccc(O)cc1O`, the Activity in test [1] is 38%. Moreover, in test [2], the inhibition came out at 68%.

For `O=C(O)CO/N=C/c1ccccc1O`, in test [1], the Activity amounted to 100%.

Turning to `O=C(O)CO/N=C/c1cc(Br)cc(Br)c1OCC(=O)O`, the Activity in test [1] was determined as 86%. The inhibition entry in test [2] was “inactive”.

`O=C(O)CCO/N=C/c1ccc(O)cc1`: the Activity in test [1] stood at 17%. The inhibition entry in test [2] is “Active”.

With `O=C(O)CCO/N=C/c1cccc(O)c1`, the Activity in test [1] was 42%. Moreover, the inhibition entry in test [2] is “Active”.

Turning to `O=C(O)CCO/N=C/c1ccc(O)c(O)c1`, the Activity in test [1] is 34%.

With `O=C(O)CCO/N=C/c1cc(Br)cc(Br)c1O`, in test [1], the Activity is 16%. The inhibition entry in test [2] is “Active”.

`O=C(O)CO/N=C/c1ccc(OCC(=O)O)cc1`: the Activity in test [1] is 80%. In addition, the inhibition result in test [2] is “inactive”.

Regarding `O=C(O)CO/N=C/c1cc(Br)cc(Br)c1O`, the Activity in test [1] amounted to 35%.

The values above are taken from ChEMBL document CHEMBL4725384, “Monoaryl derivatives as transthyretin fibril formation inhibitors: Design, synthesis, biological evaluation and structural analysis” (Bioorg Med Chem, 2020).
